Results reported in patent publication US20250163022A1, “PARP1 INHIBITORS” (Synnovation Therapeutics, Inc., priority 2021, published 2025).

The compounds below were run against T1, PARP1 (Homo sapiens, UniProt P09874) (assay: In-Cell Western measurement of PARylation in PARP1 WT and knockout cells). Details: HeLa cells (wide-type with PARP1 gene); hydrogen peroxide-induced PARylation; compounds 30 min, then 10 mM hydrogen peroxide 15 min; read-out: HeLa_WT_IC50.
T1 construct: HeLa cells (wide-type with PARP1 gene) were purchased from ATCC; host or cells: HeLa (wild type)
T1 sequence (P09874 whole entry): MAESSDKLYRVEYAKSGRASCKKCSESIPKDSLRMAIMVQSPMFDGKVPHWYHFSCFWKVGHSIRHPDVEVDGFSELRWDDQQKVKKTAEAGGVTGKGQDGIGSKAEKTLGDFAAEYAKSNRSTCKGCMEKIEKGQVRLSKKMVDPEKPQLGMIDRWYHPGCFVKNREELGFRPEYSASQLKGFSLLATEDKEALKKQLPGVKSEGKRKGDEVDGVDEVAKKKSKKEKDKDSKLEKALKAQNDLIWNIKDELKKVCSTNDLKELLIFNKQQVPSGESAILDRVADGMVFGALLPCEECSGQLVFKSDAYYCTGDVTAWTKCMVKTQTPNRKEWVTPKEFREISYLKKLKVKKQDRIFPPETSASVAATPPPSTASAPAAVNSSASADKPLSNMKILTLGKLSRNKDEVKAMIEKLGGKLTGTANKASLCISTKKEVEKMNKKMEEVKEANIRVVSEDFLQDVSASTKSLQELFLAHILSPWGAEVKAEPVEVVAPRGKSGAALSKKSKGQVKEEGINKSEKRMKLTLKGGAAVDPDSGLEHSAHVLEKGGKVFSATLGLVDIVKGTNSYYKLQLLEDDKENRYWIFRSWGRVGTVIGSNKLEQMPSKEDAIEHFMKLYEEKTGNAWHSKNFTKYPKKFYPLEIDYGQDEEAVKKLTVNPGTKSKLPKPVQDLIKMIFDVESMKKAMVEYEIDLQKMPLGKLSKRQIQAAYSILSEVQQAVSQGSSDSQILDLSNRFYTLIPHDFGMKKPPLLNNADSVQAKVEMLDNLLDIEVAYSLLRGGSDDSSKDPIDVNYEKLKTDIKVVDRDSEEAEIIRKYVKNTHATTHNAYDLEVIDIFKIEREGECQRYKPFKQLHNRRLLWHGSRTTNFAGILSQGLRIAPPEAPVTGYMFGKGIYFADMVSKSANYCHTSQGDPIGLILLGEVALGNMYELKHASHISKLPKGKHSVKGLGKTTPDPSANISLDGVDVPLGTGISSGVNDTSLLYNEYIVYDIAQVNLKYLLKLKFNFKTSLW
Format: cell-based
Text: The purpose of this cell-based assay is to measure the potency and selectivity of synthesized PARP inhibitors in suppressing hydrogen peroxide-induced PARylation in cells with and without PARP1 expression. Several cell lines were used in this assay. The human PARP1 knockout HEK-293T cell line (#ab266598) was purchased from Abcam, and its corresponding wide-type control is the human wild-type HEK-293T cell line (#ab255449). The HAP1 isogenic cell lines with and without the PARP1 gene (#HZGHC003943c006) were purchased from Horizon Discovery. HeLa cells (wide-type with PARP1 gene) were purchased from ATCC. Cells were cultured using complete medium containing 10% fetal bovine serum. One day before the assay, cells were seeded in 96-well plates at the density of 20,000 cells per well in 100 uL complete medium. Compounds were dissolved using DMSO and diluted to the working concentrations using complete medium. Cells were pre-treated with compounds for 30 min and then stimulated with 10 mM hydrogen peroxide for 15 min. After stimulation, cells were immediately fixed using ice-cold methanol for 20 min. After fixation, cells were washed using 1×PBST buffer for 3 times, 5 min each time, to eliminate residual methanol. Cells were blocked for 2 h at room temperature in blocking buffer (LI-COR Biosciences, #927-70001). Primary antibody was diluted in diluent buffer (LI-COR Biosciences, #927-75001, 1:200) at 50 uL per well. Cells were incubated with the primary antibody at 4° C. for 18 h. The wells were then washed using 1×PBST for 3 times, 5 min each time. IRDye® 680RD Goat anti-Mouse IgG (H+L) secondary antibody was diluted at 1/2000 using the diluent buffer and added at 100 μL per well. Secondary antibody incubation was for 1 h at room temperature. Cells were then washed using 1×PBST for 3 times, 5 min each time. The signal was detected and analyzed using LI-COR Odyssey DLx Imaging system. Data were collected and further processed using GraphPad Prism for IC50 estimation.

IC50, 100 to 500 nM:
CNC(=O)c1ccc(N2CCN(Cc3ccc4c(c3)NC(=O)C3CC43)CC2)cn1 (stereo not shown) [Compound I-3, N-Methyl-5-(4-((2-oxo-1a,2,3,7b-tetrahydro-1H-cyclopropa[c]quinolin-5-yl)methyl)piperazin-1-yl)picolinamide]
CCn1c(=O)[nH]c2cc(CN3CCN(c4ccc(C(=O)NC)nc4)CC3)cnc2c1=O [Compound I-9, 5-(4-((3-Ethyl-2,4-dioxo-1,2,3,4-tetrahydropyrido[3,2-d]pyrimidin-7-yl)methyl)piperazin-1-yl)-N-methylpicolinamide]

IC50, ≤ 10 nM:
CCn1c(=O)[nH]c2cc(CN3CCN(c4ccc(C(=O)NC)nc4)CC3)ccc2c1=O [Compound I-1, 5-(4-((3-Ethyl-2,4-dioxo-1,2,3,4-tetrahydroquinazolin-7-yl)methyl)piperazin-1-yl)-N-methylpicolinamide]
CNC(=O)c1ccc(N2CCN(Cc3ccc4c5c(c(=O)[nH]c4c3)CCC5)CC2)cn1 [Compound I-4, N-methyl-5-(4-((4-oxo-2,3,4,5-tetrahydro-1H-cyclopenta[c]quinolin-7-yl)methyl)piperazin-1-yl)picolinamide]
CNC(=O)c1ccc(N2CCN(Cc3cnc4c5c(c(=O)[nH]c4c3)CCC5)CC2)cn1 [Compound I-6, N-methyl-5-(4-((6-oxo-6,7,8,9-tetrahydro-5H-cyclopenta[c][1,5]naphthyridin-3-yl)methyl)piperazin-1-yl)picolinamide]
CNC(=O)c1ccc(N2CCN(Cc3ccc4c(c3)[nH]c(=O)c3c4ccn3C)CC2)cn1 [Compound I-7, N-methyl-5-(4-((3-methyl-4-oxo-4,5-dihydro-3H-pyrrolo[2,3-c]quinolin-7-yl)methyl)piperazin-1-yl)picolinamide]
CNC(=O)c1ccc(N2CCN(Cc3ccc4c(c3)[nH]c(=O)c3ccn(C)c34)CC2)cn1 [Compound I-8, N-methyl-5-(4-((1-methyl-4-oxo-4,5-dihydro-1H-pyrrolo[3,2-c]quinolin-7-yl)methyl)piperazin-1-yl)picolinamide]
CNC(=O)c1ccc(N2CCN(Cc3ccc4c(=O)n(CC(F)F)c(=O)[nH]c4c3)CC2)cn1 [Compound I-12, 5-(4-((3-(2,2-Difluoroethyl)-2,4-dioxo-1,2,3,4-tetrahydroquinazolin-7-yl)methyl)piperazin-1-yl)-N-methylpicolinamide]
CCc1cc2sc(CN3CCN(c4ccc(C(=O)NC)nc4)CC3)cc2[nH]c1=O [Compound I-13, 5-(4-((6-Ethyl-5-oxo-4,5-dihydrothieno[3,2-b]pyridin-2-yl)methyl)piperazin-1-yl)-N-methylpicolinamide]
CCc1c2c3c(cc(CN4CCN(c5ccc(C(=O)NC)nc5)CC4)cc3[nH]c1=O)OCC2 [Compound I-14, 5-(4-((4-Ethyl-5-oxo-2,3,5,6-tetrahydropyrano[4,3,2-de]quinolin-8-yl)methyl)piperazin-1-yl)-N-methylpicolinamide]
CCN1C(=O)Nc2cc(CN3CCN(c4ccc(C(=O)NC)nc4)CC3)cc3ncnc1c23 [Compound I-15, 5-(4-((3-Ethyl-2-oxo-2,3-dihydro-1H-pyrimido[4,5,6-de]quinazolin-8-yl)methyl)piperazin-1-yl)-N-methylpicolinamide]
CCn1c(=O)[nH]c2cc(CN3CCN(c4ccc(C(=O)NC)nc4C)CC3)ccc2c1=O [Compound I-16, 5-(4-((3-ethyl-2,4-dioxo-1,2,3,4-tetrahydroquinazolin-7-yl)methyl)piperazin-1-yl)-N,6-dimethylpicolinamide]
CCN1C(=O)Nc2cc(CN3CCN(c4ccc(C(=O)NC)nc4C)CC3)cc3ncnc1c23 [Compound I-17, 5-(4-((3-Ethyl-2-oxo-2,3-dihydro-1H-pyrimido[4,5,6-de]quinazolin-8-yl)methyl)piperazin-1-yl)-N,6-dimethylpicolinamide]
CCN1C(=O)Nc2cc(CN3CCN(c4ccc(C(=O)NC)nc4C(F)(F)F)CC3)cc3ncnc1c23 [Compound I-18, 5-(4-((3-Ethyl-2-oxo-2,3-dihydro-1H-pyrimido[4,5,6-de]quinazolin-8-yl)methyl)piperazin-1-yl)-N-methyl-6-(trifluoromethyl)picolinamide]
CCN1C(=O)Nc2cc(CN3CCN(c4ccc(C(=O)NC)nc4F)CC3)cc3ncnc1c23 [Compound I-19, 5-(4-((3-ethyl-2-oxo-2,3-dihydro-1H-pyrimido[4,5,6-de]quinazolin-8-yl)methyl)piperazin-1-yl)-6-fluoro-N-methylpicolinamide]
CNC(=O)c1ccc(N2CCN(Cc3cnc4c5c(c(=O)[nH]c4c3)CCC5)CC2)c(C)n1 [Compound I-20, N,6-dimethyl-5-(4-((6-oxo-6,7,8,9-tetrahydro-5H-cyclopenta[c][1,5]naphthyridin-3-yl)methyl)piperazin-1-yl)picolinamide]
CCn1c(=O)[nH]c2c(F)c(CN3CCN(c4ccc(C(=O)NC)nc4C)CC3)ccc2c1=O [Compound I-21, 5-(4-((3-ethyl-8-fluoro-2,4-dioxo-1,2,3,4-tetrahydroquinazolin-7-yl)methyl)piperazin-1-yl)-N,6-dimethylpicolinamide]
CCn1c(=O)[nH]c2cc(CN3CCN(c4ccc(C(=O)NC)nc4C)CC3)cc(F)c2c1=O [Compound I-22, 5-(4-((3-ethyl-5-fluoro-2,4-dioxo-1,2,3,4-tetrahydroquinazolin-7-yl)methyl)piperazin-1-yl)-N,6-dimethylpicolinamide]
CNC(=O)c1ccc(N2CCN(Cc3cnc4c5c(c(=O)[nH]c4c3)CCC5)CC2)c(C(F)(F)F)n1 [Compound I-23, N-methyl-5-(4-((6-oxo-6,7,8,9-tetrahydro-5H-cyclopenta[c][1,5]naphthyridin-3-yl)methyl)piperazin-1-yl)-6-(trifluoromethyl)picolinamide]
CNC(=O)c1ccc(N2CCN(Cc3cnc4c5c(c(=O)[nH]c4c3)CCC5)CC2)c(F)n1 [Compound I-24, 6-Fluoro-N-methyl-5-(4-((6-oxo-6,7,8,9-tetrahydro-5H-cyclopenta[c][1,5]naphthyridin-3-yl)methyl)piperazin-1-yl)picolinamide]
CNC(=O)c1ccc(N2CCN(Cc3ncc4c5c(c(=O)[nH]c4c3F)CCC5)CC2)c(C)n1 [Compound I-25, 5-(4-((4-Fluoro-6-oxo-6,7,8,9-tetrahydro-5H-cyclopenta[c][1,6]naphthyridin-3-yl)methyl)piperazin-1-yl)-N,6-dimethylpicolinamide]
CNC(=O)c1ccc(N2CCN(Cc3ncc4c5c(c(=O)[nH]c4c3F)CCC5)CC2)cn1 [Compound I-26, 5-(4-((4-Fluoro-6-oxo-6,7,8,9-tetrahydro-5H-cyclopenta[c][1,6]naphthyridin-3-yl)methyl)piperazin-1-yl)-N-methylpicolinamide]
CNC(=O)c1ccc(N2CCN(Cc3ncc4c5c(c(=O)[nH]c4c3F)CCC5)CC2)c(F)n1 [Compound I-27, 6-Fluoro-5-(4-((4-fluoro-6-oxo-6,7,8,9-tetrahydro-5H-cyclopenta[c][1,6]naphthyridin-3-yl)methyl)piperazin-1-yl)-N-methylpicolinamide]
CNC(=O)c1ccc(N2CCN(Cc3ncc4c5c(c(=O)[nH]c4c3F)CCC5)CC2)c(C(F)(F)F)n1 [Compound I-28, 5-(4-((4-Fluoro-6-oxo-6,7,8,9-tetrahydro-5H-cyclopenta[c][1,6]naphthyridin-3-yl)methyl)piperazin-1-yl)-N-methyl-6-(trifluoromethyl)picolinamide]

IC50, 10 to 100 nM:
CCN1Cc2ccc(CN3CCN(c4ccc(C(=O)NC)nc4)CC3)cc2NC1=O [Compound I-2, 5-(4-((3-Ethyl-2-oxo-1,2,3,4-tetrahydroquinazolin-7-yl)methyl)piperazin-1-yl)-N-methylpicolinamide]
CNC(=O)c1ccc(N2CCN(Cc3ccc4c(c3)NC(=O)C3(CC3)C4)CC2)cn1 [Compound I-5, N-methyl-5-(4-((2′-oxo-1′,4′-dihydro-2′H-spiro[cyclopropane-1,3′-quinolin]-7′-yl)methyl)piperazin-1-yl)picolinamide]
CNC(=O)c1ccc(N2CCN(Cc3ccc4c(c3)[nH]c(=O)c3c4cnn3C)CC2)cn1 [Compound I-10, N-methyl-5-(4-((3-methyl-4-oxo-4,5-dihydro-3H-pyrazolo[3,4-c]quinolin-7-yl)methyl)piperazin-1-yl)picolinamide]
CCN1Cc2ncc(CN3CCN(c4ccc(C(=O)NC)nc4)CC3)cc2NC1=O [Compound I-11, 5-(4-((3-Ethyl-2-oxo-1,2,3,4-tetrahydropyrido[3,2-d]pyrimidin-7-yl)methyl)piperazin-1-yl)-N-methylpicolinamide]
